Calls of active or inactive are those of the source. No cut-off for these calls is given here.
Columns and labels:
[1] = biological target: Platelet-derived growth factor receptor beta (Homo sapiens) (UniProt P09619); test: Inhibition of wild type C-terminal FLAG-tagged human TEL fused PDGFRbeta (unknown origin) transfected in mouse BAF3 cells assessed as growth inhibition after 72 hrs by CCK8 assay; type: cell-based
[2] = biological target: Receptor-type tyrosine-protein kinase FLT3 (Homo sapiens) (UniProt P36888); test: Inhibition of wild type C-terminal FLAG-tagged human TEL fused FLT3 (unknown origin) transfected in mouse BAF3 cells assessed as growth inhibition after 72 hrs by CCK8 assay; type: cell-based
[3] = biological target: Fibroblast growth factor receptor 1 (Homo sapiens) (UniProt P11362); test: Inhibition of wild type C-terminal FLAG-tagged human TEL fused FGFR1 (unknown origin) transfected in mouse BAF3 cells assessed as growth inhibition after 72 hrs by CCK8 assay; type: cell-based
[4] = biological target: Fibroblast growth factor receptor 3 (Homo sapiens) (UniProt P22607); test: Inhibition of wild type C-terminal FLAG-tagged human TEL fused FGFR3 (unknown origin) transfected in mouse BAF3 cells assessed as growth inhibition after 72 hrs by CCK8 assay; type: cell-based
[5] = biological target: Fibroblast growth factor receptor 4 (Homo sapiens) (UniProt P22455); test: Inhibition of wild type C-terminal FLAG-tagged human TEL fused FGFR4 (unknown origin) transfected in mouse BAF3 cells assessed as growth inhibition after 72 hrs by CCK8 assay; type: cell-based
[6] = biological target: Cytoplasmic tyrosine-protein kinase BMX (Homo sapiens) (UniProt P51813); test: Inhibition of wild type C-terminal FLAG-tagged human TEL fused BMX (unknown origin) transfected in mouse BAF3 cells assessed as growth inhibition after 72 hrs by CCK8 assay; type: cell-based
K562 [7] = test: Antiproliferative activity in human K562 cells after 72 hrs by CCK8 assay; type: functional; settings: K562, 72 h
OCI-AML2 = test: Antiproliferative activity in human OCI-AML2 cells after 72 hrs by CCK8 assay; type: functional; settings: OCI-AML2, 72 h
U-937 = test: Antiproliferative activity in human U937 cells after 72 hrs by CCK8 assay; type: functional; settings: U-937, 72 h
[8] = biological target: T1, Bcr/Abl fusion protein (Homo sapiens) (UniProt P00519+P11274); test: (§1) Inhibition of BCR/ABL in human K562 cells assessed as inhibition of BCR/ABL autophosphorylation at Y245 site after 1 hr by immunoblotting analysis; type: cell-based
Bcr/Abl fusion protein [9] = biological target: Bcr/Abl fusion protein (Homo sapiens, UniProt P00519); test: as §1; type: cell-based
[10] = biological target: T1, Bcr/Abl fusion protein (Homo sapiens); test: Inhibition of BCR/ABL in human K562 cells assessed as inhibition of STAT5 phosphorylation up to 0.3 uM after 1 hr by immunoblotting analysis; type: cell-based
[11] = biological target: T1, Bcr/Abl fusion protein (Homo sapiens); test: Inhibition of BCR/ABL in human KU812 cells assessed as inhibition of CrkL phosphorylation up to 0.3 uM after 1 hr by immunoblotting analysis; type: cell-based
[12] = biological target: T1, Bcr/Abl fusion protein (Homo sapiens); test: Inhibition of BCR/ABL in human KU812 cells assessed as inhibition of ErK phosphorylation up to 0.3 uM after 1 hr by immunoblotting analysis; type: cell-based
Bcr/Abl fusion protein [13] = biological target: Bcr/Abl fusion protein (Homo sapiens, UniProt P00519, T315I); test: Inhibition of BCR/ABL T315I mutant (unknown origin) expressed in mouse BAF3 cells assessed as inhibition of ErK phosphorylation after 1 hr by immunoblotting analysis; type: cell-based
MEG-01 = test: Induction of apoptosis in human MEG01 cells assessed as cleaved PARP level up to 0.3 uM after 24 hrs by immunoblotting analysis; type: functional, cell-based
K562 [14] = test: Induction of apoptosis in human K562 cells assessed as cleaved caspase-3 level up to 0.3 uM after 24 hrs by immunoblotting analysis; type: functional, cell-based
BaF3 [15] = test: Induction of apoptosis in mouse BAF3 cells expressing BCR/ABL T315I mutant assessed as cleaved caspase-3 level up to 0.3 uM after 24 hrs by immunoblotting analysis; type: functional, cell-based
BaF3 [16] = test: Cell cycle arrest in mouse BAF3 cells expressing BCR/ABL T315I mutant assessed as accumulation at G0/G1 phase up to 0.3 uM after 24 hrs by propidium iodide/RNase staining based flow cytometric analysis; type: functional
[17] = Tmax in mouse at 1 mg/kg, iv by LC-MS/MS analysis; type: ADME, organism-based; settings: in vivo
[18] = Cmax in mouse at 10 mg/kg, po by LC-MS/MS analysis; type: ADME, organism-based; design: dose 10 mg/kg, route oral; settings: in vivo
[19] = AUC (0 to t) in mouse at 10 mg/kg, po by LC-MS/MS analysis; type: ADME, organism-based; settings: in vivo
[20] = Apparent clearance during terminal phase in mouse at 10 mg/kg, po by LC-MS/MS analysis; type: ADME, organism-based; settings: in vivo, read-out: CLz/F (converted)
[21] = MRT (0 to t) in mouse at 1 mg/kg, iv by LC-MS/MS analysis; type: ADME, organism-based; settings: in vivo
[22] = Half life in Sprague-Dawley rat at 1 mg/kg, iv by LC-MS/MS analysis; type: ADME, organism-based; settings: in vivo
[23] = Half life in Sprague-Dawley rat at 10 mg/kg, po by LC-MS/MS analysis; type: ADME, organism-based; settings: in vivo
[24] = Tmax in Sprague-Dawley rat at 10 mg/kg, po by LC-MS/MS analysis; type: ADME, organism-based; settings: in vivo
[25] = AUC (0 to t) in Sprague-Dawley rat at 1 mg/kg, iv by LC-MS/MS analysis; type: ADME, organism-based; settings: in vivo
[26] = AUC (0 to t) in Sprague-Dawley rat at 10 mg/kg, po by LC-MS/MS analysis; type: ADME, organism-based; settings: in vivo
[27] = Apparent volume of distribution during terminal phase in Sprague-Dawley rat at 10 mg/kg, po by LC-MS/MS analysis; type: ADME, organism-based; settings: in vivo
[28] = Apparent clearance during terminal phase in Sprague-Dawley rat at 10 mg/kg, po by LC-MS/MS analysis; type: ADME, organism-based; settings: in vivo, read-out: CLz/F (converted)
BaF3 [29] = test: Antitumor activity against mouse BAF3 cells expressing BCR/ABL T315I mutant allografted in nu/nu mouse assessed as tumor growth inhibition at 25 to 50 mg/kg, po administered via gavage for 14 days by Ki-67 staining based assay; type: functional, organism-based
BaF3 [30] = test: Antitumor activity against mouse BAF3 cells expressing BCR/ABL T315I mutant allografted in nu/nu mouse assessed as tumor growth inhibition at 25 to 50 mg/kg, po administered via gavage for 14 days by TUNEL staining based assay; type: functional, organism-based
[31] = biological target: T2, Tyrosine-protein kinase ABL1 (Homo sapiens, UniProt P00519); test: Inhibition of inactive wild type His-tagged ABL (229 to 500 residues) (unknown origin) expressed in baculovirus infected sf9 cells assessed as reduction in autophosphorylation preincubated for 60 mins followed by ATP addition measured after 8 hrs by ADP-Glo assay
[32] = biological target: Tyrosine-protein kinase ABL1 (Homo sapiens, UniProt P00519, T315I); test: Inhibition of inactive wild type His-tagged ABL T315I mutant (229 to 500 residues) (unknown origin) expressed in baculovirus infected sf9 cells assessed as reduction in autophosphorylation preincubated for 60 mins followed by ATP addition measured after 8 hrs by ADP-Glo assay
[33] = biological target: T2, Tyrosine-protein kinase ABL1; settings: BaF3
Description: Inhibition of wild type C-terminal FLAG-tagged human TEL fused ABL (unknown origin) transfected in mouse BAF3 cells assessed as growth inhibition after 72 hrs by CCK8 assay

Sequence of Receptor-type tyrosine-protein kinase FLT3 (Homo sapiens) (P36888 whole entry, the tested form may be a part): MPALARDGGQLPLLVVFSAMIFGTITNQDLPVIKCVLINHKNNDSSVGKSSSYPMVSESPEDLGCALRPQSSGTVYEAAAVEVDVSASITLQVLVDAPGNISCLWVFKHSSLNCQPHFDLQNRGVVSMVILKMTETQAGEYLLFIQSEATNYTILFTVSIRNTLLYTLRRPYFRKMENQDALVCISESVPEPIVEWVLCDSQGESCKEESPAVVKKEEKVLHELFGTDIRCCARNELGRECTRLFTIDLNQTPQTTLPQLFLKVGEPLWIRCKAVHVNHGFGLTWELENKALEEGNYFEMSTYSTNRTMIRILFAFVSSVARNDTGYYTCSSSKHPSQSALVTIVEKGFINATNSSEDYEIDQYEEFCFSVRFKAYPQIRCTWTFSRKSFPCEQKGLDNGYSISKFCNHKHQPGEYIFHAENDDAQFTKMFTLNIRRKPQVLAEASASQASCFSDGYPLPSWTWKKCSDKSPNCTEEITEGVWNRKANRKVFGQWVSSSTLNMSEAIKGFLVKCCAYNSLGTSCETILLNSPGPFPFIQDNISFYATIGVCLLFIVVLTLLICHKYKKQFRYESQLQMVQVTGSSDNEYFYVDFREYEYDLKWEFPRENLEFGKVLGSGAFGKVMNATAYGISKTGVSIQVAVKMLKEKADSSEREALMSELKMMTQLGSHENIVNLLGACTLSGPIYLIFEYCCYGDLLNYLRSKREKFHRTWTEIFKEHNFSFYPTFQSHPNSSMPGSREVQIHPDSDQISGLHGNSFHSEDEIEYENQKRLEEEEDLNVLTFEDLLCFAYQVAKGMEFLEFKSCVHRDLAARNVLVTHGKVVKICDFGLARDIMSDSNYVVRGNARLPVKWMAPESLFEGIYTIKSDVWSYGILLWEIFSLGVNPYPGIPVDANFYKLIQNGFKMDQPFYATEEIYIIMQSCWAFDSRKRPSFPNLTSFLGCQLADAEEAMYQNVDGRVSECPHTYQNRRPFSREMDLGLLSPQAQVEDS
Sequence of Platelet-derived growth factor receptor beta (Homo sapiens) (P09619 whole entry, the tested form may be a part): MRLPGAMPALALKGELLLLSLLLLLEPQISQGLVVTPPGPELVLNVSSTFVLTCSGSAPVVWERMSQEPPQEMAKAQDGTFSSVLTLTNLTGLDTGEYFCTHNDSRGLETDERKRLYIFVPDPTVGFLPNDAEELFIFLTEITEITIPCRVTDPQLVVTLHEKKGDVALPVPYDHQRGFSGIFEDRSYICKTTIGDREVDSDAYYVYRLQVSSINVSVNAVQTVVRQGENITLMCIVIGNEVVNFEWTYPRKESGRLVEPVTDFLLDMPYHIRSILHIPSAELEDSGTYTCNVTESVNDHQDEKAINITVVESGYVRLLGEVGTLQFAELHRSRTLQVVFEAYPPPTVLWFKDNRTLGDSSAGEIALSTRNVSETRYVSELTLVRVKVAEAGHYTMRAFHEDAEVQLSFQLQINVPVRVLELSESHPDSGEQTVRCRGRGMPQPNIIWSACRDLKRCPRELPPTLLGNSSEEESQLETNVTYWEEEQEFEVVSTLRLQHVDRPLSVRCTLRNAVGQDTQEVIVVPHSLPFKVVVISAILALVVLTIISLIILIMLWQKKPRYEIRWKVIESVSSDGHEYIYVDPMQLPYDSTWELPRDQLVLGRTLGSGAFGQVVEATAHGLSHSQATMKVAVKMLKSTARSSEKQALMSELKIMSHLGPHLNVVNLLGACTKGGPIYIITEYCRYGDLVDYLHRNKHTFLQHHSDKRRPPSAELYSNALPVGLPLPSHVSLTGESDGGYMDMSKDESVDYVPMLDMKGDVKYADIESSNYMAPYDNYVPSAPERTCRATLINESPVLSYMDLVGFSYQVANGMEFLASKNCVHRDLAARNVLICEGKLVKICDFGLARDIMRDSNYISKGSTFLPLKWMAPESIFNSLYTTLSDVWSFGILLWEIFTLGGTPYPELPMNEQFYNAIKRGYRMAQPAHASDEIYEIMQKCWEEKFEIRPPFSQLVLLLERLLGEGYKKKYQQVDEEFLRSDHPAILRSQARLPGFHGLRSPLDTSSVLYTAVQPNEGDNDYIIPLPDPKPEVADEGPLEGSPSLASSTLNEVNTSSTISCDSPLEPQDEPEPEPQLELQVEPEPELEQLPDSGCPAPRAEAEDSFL
Sequence of Cytoplasmic tyrosine-protein kinase BMX (Homo sapiens) (P51813 whole entry, the tested form may be a part): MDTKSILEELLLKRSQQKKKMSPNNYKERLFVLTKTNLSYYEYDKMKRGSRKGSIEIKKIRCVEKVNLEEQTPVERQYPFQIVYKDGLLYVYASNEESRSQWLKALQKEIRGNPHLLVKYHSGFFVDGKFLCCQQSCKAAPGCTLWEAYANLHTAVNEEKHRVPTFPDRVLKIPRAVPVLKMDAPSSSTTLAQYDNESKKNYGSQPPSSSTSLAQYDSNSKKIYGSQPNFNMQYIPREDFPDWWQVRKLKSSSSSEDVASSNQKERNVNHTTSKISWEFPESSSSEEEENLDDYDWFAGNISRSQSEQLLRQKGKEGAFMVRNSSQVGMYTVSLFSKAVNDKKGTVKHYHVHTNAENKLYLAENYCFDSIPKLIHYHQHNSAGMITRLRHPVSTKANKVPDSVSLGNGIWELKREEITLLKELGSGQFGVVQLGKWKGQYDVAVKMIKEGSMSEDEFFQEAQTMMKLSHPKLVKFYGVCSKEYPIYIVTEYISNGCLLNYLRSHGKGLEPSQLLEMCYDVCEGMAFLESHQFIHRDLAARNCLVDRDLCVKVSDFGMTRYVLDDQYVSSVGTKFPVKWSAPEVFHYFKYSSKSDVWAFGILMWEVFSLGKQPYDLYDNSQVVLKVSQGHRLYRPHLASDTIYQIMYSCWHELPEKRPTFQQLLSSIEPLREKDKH
Sequence of Fibroblast growth factor receptor 4 (Homo sapiens) (P22455 22-802 limits assumed): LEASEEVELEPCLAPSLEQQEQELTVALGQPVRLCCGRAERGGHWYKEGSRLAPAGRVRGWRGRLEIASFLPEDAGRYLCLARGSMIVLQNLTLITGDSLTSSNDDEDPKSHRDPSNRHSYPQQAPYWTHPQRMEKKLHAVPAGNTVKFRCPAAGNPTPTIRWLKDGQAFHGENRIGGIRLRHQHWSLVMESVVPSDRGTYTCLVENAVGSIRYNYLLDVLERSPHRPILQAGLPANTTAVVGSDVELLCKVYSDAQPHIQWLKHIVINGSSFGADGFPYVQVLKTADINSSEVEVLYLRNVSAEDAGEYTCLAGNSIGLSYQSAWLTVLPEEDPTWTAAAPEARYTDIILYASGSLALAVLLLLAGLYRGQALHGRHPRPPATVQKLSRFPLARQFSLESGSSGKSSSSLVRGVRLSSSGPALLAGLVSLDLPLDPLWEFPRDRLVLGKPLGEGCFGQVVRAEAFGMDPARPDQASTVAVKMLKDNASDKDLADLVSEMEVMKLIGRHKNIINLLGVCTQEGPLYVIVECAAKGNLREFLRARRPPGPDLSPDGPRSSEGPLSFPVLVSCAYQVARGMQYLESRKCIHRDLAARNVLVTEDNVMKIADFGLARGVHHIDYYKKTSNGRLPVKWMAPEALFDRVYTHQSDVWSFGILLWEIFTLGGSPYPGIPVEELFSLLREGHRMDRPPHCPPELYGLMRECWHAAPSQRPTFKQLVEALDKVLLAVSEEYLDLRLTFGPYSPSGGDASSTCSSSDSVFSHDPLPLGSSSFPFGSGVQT
Sequence of Fibroblast growth factor receptor 1 (Homo sapiens) (P11362 22-822 limits assumed): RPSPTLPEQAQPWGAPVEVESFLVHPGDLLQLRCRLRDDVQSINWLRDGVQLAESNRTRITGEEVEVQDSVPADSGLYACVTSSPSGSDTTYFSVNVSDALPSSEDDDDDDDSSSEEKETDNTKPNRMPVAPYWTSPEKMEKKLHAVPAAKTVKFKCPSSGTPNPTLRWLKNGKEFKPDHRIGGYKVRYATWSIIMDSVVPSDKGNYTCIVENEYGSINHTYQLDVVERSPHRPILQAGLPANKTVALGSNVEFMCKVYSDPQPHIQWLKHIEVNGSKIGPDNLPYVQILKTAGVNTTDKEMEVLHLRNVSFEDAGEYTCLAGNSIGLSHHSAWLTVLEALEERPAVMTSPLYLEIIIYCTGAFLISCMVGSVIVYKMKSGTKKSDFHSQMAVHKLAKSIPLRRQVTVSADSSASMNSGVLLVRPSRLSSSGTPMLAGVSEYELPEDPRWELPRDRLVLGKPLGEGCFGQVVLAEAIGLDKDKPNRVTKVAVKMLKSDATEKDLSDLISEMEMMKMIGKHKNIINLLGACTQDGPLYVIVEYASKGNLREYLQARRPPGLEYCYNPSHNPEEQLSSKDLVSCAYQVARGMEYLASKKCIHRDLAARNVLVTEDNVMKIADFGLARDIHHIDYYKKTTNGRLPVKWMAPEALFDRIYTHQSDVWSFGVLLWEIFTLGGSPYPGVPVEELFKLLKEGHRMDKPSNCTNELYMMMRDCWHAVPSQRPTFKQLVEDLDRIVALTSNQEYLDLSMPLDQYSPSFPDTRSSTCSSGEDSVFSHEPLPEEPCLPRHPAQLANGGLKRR

Question: Which GI50 [1] does the source give for CN1CCN(Cc2ccc(NC(=O)CCSc3ccc4c(/C=C/c5ccccn5)n[nH]c4c3)cc2C(F)(F)F)CC1 here?
Answer: The GI50 was 8 nM.

Question: And the GI50 [2]?
Answer: The GI50 was 4 nM.

Question: What about the GI50 [3] of the same molecule?
Answer: The GI50 was 42 nM.

Question: And the GI50 [4]?
Answer: The GI50 was 73 nM.

Question: What about the GI50 [5] of the same molecule?
Answer: The GI50 was 75 nM.

Question: What about the GI50 [6] of the same molecule?
Answer: The GI50 was 2340 nM.

Question: What about the GI50 (K562 [7]) of the same molecule?
Answer: Its GI50 is 1 nM.

Question: And the GI50 (OCI-AML2)?
Answer: The GI50 was 1420 nM.

Question: And the GI50 (U-937)?
Answer: The GI50 was 780 nM.

Question: What about the inhibition [8] of the same molecule?
Answer: The inhibition was “Dose-dependent effect”.

Question: And the EC50 (Bcr/Abl fusion protein [9])?
Answer: The EC50 was less than 10 nM.

Question: And the inhibition [10]?
Answer: The inhibition was “Active”.

Question: What about the inhibition [11] of the same molecule?
Answer: Its inhibition is “Active”.

Question: What about the inhibition [12] of the same molecule?
Answer: The inhibition was “Active”.

Question: And the EC50 (Bcr/Abl fusion protein [13])?
Answer: The EC50 was less than 10 nM.

Question: And the Activity (MEG-01)?
Answer: Its Activity is “Active”.

Question: And the Activity (K562 [14])?
Answer: Its Activity is “Active”.

Question: And the Activity (BaF3 [15])?
Answer: Its Activity is “Active”.

Question: And the Activity (BaF3 [16])?
Answer: Its Activity is “Active”.

Question: What about the Tmax [17] of the same molecule?
Answer: Its Tmax is 1.8 min.

Question: What about the Cmax [18] of the same molecule?
Answer: The Cmax was 87.7 ng/mL.

Question: And the AUC(0-t) [19]?
Answer: Its AUC(0-t) is 225 ng·h/mL.

Question: What about the CL/F [20] of the same molecule?
Answer: Its CL/F is 723 mL/min/kg.

Question: What about the MRT last [21] of the same molecule?
Answer: Its MRT last is 1.7 h.

Question: And the half-life [22]?
Answer: The half-life was 2.3 h.

Question: And the half-life [23]?
Answer: The half-life was 2.6 h.

Question: And the Tmax [24]?
Answer: The Tmax was 3.3 h.

Question: And the AUC(0-t) [25]?
Answer: The AUC(0-t) was 192 ng·h/mL.

Question: What about the AUC(0-t) [26] of the same molecule?
Answer: The AUC(0-t) was 210 ng·h/mL.

Question: What about the Vz [27] of the same molecule?
Answer: The Vz was 139.1 L/kg.

Question: And the CL/F [28]?
Answer: Its CL/F is 633 mL/min/kg.

Question: What about the TGI (BaF3 [29]) of the same molecule?
Answer: The TGI was “Active”.

Question: And the TGI (BaF3 [30])?
Answer: The TGI was “Active”.

Question: And the IC50 [31]?
Answer: Its IC50 is 2 nM.

Question: What about the IC50 [32] of the same molecule?
Answer: Its IC50 is 0.2 nM.

Question: And the GI50 [33]?
Answer: The GI50 was less than 1 nM.
